Measurements published in EP0765662A1, “HIV GROWTH INHIBITORY COMPOSITION” (Kochi, Mutsuyuki, priority 1994, dated 1995).
Structures can show the parent of a compound that is named as a salt.

Tests used:
HIVBRU = assay: HIV-p24 antigen released from HIV-infected A3.01 cells stimulated with TNF-α; type: cell-based; settings: TNF-α 10 units/ml; for Amount of the HIV p24 antigen: HIV-infected A3.01 cells
Text: In view of all these test results, it appears that the inhibitory activity of SBA against the replication of HIV-1 is not attributable to that SBA directly acts on HIV so as to make lose the infectivity (infectious power) of HIV. (c) Test of examining the inhibitory activity of SBA against such replication of the viral particles of HIV which is induced when a tumor necrosis factor (TNF-α) is introduced into the HIV-infected A3.01 cells AIDS virus, HIVBRU (its reverse transcriptase activity, 0.03 cpm/cell) and 6 x 10^6 cells of the A3.01 cell (HAT-susceptible CEM cell strain) were mixed and reacted together in a culture medium at 37°C for 1 hour, and thereafter the mixed cells were washed with PBS to remove the excess of the particles of HIV virus therefrom. The A3.01 cells (5 x 10^5 cells) which had been so infected with HIV were then cultivated in various culture media containing TNF-α and SBA at different concentrations of them. The amount of the HIV-p24 antigen (an HIV-structural protein of HIV) which was released in the culture supernatant from the cultivated cells under test was periodically measured during the period of between 0 day to 5th day of the cultivation. The culture medium used for the above-mentioned cultivation of the A3.01 cells was an RPM1-1640 medium comprising 10% of heat-treated embryonic bovine serum, and minor amounts of penicillin, streptomycin, glutamine and mercaptoethanol. The amount of the HIV-p24 antigen produced was measured with lapse of time, and the relationship of the amount of the HIV-p24 antigen to the concentration of SBA is summarily tabulated in Table 4 below.
In the tests above, the replication of the viral particles of HIV was examined in terms of the amount of the p24 antigen protein produced and appearing in the culture supernatant from the cultivated cells. Thus, the amount of the p24 antigen produced was measured periodically over 6 days after the A3.01 cells were infested with HIV. It was then observed that in the absence of SBA, the replication of the viral particles of HIV was induced in the A3.01 cells by stimulation with 10 units/ml of TNF-α added. […] Thus, the effective amount of SBA has the activity to inhibit the replication of the viral particles of HIV within the cells to an extent as same as AZT, and from this it is expected that SBA is useful similarly to AZT for the therapeutic treatments of AIDS. (d) Tests for evaluating an inhibitory activity of SBA to the formation of giant cells from HIV-infected Molt-4 cells In a similar manner to that in the above Test (c), Molt-4 cells (a CD4-positive human T-cell strain) were infected with AIDS virus, HIVBRU. Thereafter, The HIV-infected Molt-4 cells were mixed with such Molt-4 cells which had no HIV-infection. And the mixture of these cells were cultivated at a high density of the mixed cells in the above-mentioned improved RPM1-1640 medium containing SBA at its different concentrations. Whereupon, there was examined the presence of cell-fused cell(s) (namely, the giant cells) which were formed by fusion of the HIV-infected cells with each other or by fusion of the HIV-infected cells with the HIV-non-infected cells. The formation and appearance of the giant cells was confirmed by microscopic observation. The size of such giant cells is clearly different from the size of the other usual cells. […] Namely, it is shown that SBA has an anti-HIV activity. […] In the initial stage of the transcription of HIV-1 gene, said NFkB, i.e. the transcription regulating factor of the host cells, plays an important role. […] NFkB is known to be a complex protein which is composed by the association of a molecule of protein having a molecular weight of about 50,000 (p50) with a molecule of protein having a molecular weight of about 65,000 (p65). […]

ICR strain mice = assay: Evaluation of toxicity (intravenous, mice); type: in vivo; settings: intravenously, 1000 mg per kg body weight, male, 5 mice in each group
Protocol: SBA in the form of a solution in a physiological saline (containing […]) was administered intravenously to ICR strain mice (5 week-aged, male, 5 mice in each group) at a dosage of 1000 mg per kg of the body weight of mice tested.

## O=C1O[C@H]([C@@H]2COC(c3ccccc3)O2)C(O)=C1O (stereo partly drawn) [SBA, 5,6-O-benzylidene-L-ascorbic acid mono-sodium salt]
HIVBRU; Human immunodeficiency virus 1, SBA 10 µg/ml, in comparison with the cases when SBA was absent, read-out: inhibition of the replication of the HIV viral particles
  inhibition at 10 µg/mL: 50%
HIVBRU; SBA 1 µg/ml, 0th day
  Amount of the HIV p24 antigen: 0 pg/mL
HIVBRU; SBA 1 µg/ml, 1st day
  Amount of the HIV p24 antigen: 0 pg/mL
HIVBRU; SBA 1 µg/ml, 2nd day
  Amount of the HIV p24 antigen: 0 pg/mL
HIVBRU; SBA 1 µg/ml, 3rd day
  Amount of the HIV p24 antigen: 1400 pg/mL
HIVBRU; SBA 1 µg/ml, 4th day
  Amount of the HIV p24 antigen: 2600 pg/mL
HIVBRU; SBA 1 µg/ml, 5th day from the HIV infection
  inhibition of the replication of the viral particles of HIV (in words): considerably inhibited
HIVBRU; SBA 1 µg/ml, 5th day
  Amount of the HIV p24 antigen: 4000 pg/mL
HIVBRU; SBA 10 µg/ml, 0th day
  Amount of the HIV p24 antigen: 0 pg/mL
HIVBRU; SBA 10 µg/ml, 1st day
  Amount of the HIV p24 antigen: 0 pg/mL
HIVBRU; SBA 10 µg/ml, 2nd day
  Amount of the HIV p24 antigen: 0 pg/mL
HIVBRU; SBA 10 µg/ml, 3rd day
  Amount of the HIV p24 antigen: 800 pg/mL
HIVBRU; SBA 10 µg/ml, 4th day
  Amount of the HIV p24 antigen: 1500 pg/mL
HIVBRU; SBA 10 µg/ml, 5th day
  Amount of the HIV p24 antigen: 2250 pg/mL
HIVBRU; SBA 100 µg/ml, 0th day
  Amount of the HIV p24 antigen: 0 pg/mL
HIVBRU; SBA 100 µg/ml, 1st day
  Amount of the HIV p24 antigen: 0 pg/mL
HIVBRU; SBA 100 µg/ml, 2nd day
  Amount of the HIV p24 antigen: 0 pg/mL
HIVBRU; SBA 100 µg/ml, 3rd day
  Amount of the HIV p24 antigen: 0 pg/mL
HIVBRU; SBA 100 µg/ml, 4th day
  Amount of the HIV p24 antigen: 0 pg/mL
HIVBRU; SBA 100 µg/ml, 5th day
  Amount of the HIV p24 antigen: 0 pg/mL
HIVBRU; SBA 100 µg/ml
  inhibition of the replication of the viral particles of HIV (in words): completely inhibited
ICR strain mice
  mortality: None of the mice thus treated died
